Experimental data as given in patent US12377044B2, “Method and device for transdermal delivery of parathyroid hormone using a microprojection array” (Panther Life Sciences Corporation, priority 2010, dated 2025).

Assay: clinical
Conditions: female, human, in vivo, sc, 20 ug
Method: The microprojection array described herein was used to administer transdermally hPTH (1-34) to healthy human subjects. As a comparator, hPTH (1-34) was also administered subcutaneously to a healthy group of human subjects.
In this study, a microprojection array was prepared as detailed in Example 9 and inserted into an applicator-array assembly to form a transdermal delivery system, as described in Example 10. […] The delivery system was designed to deliver a systemic dose of hPTH (1-34) across the stratum corneum barrier layer of the skin upon activation of the applicator to deploy an array of microstructures causing the array of microstructures to penetrate the stratum corneum. In this study, two dose levels were administered via the transdermal delivery system, 32 μg hPTH (1-34) and 64 μg hPTH (1-34) (32 μg hPTH (1-34)×2). Subjects received these doses by applying the transdermal microneedle delivery system MicroCor® device containing the indicated amount of hPTH in the distal tips of the microneedles in the array to an abdominal site, and leaving the device in place for five (5) minutes. The comparator treatment (the commercial hPTH product known as Forteo®) was subcutaneously administered via injection into the abdominal wall at a dose of 20 μg. Blood samples were drawn at designated times and analyzed for hPTH concentration. […]

half-life: 52 min
SMILES: CC[C@H](C)[C@H](NC(=O)[C@H](CCC(=O)O)NC(=O)[C@H](CO)NC(=O)[C@@H](NC(=O)[C@@H](N)CO)C(C)C)C(=O)N[C@@H](CCC(N)=O)C(=O)N[C@@H](CC(C)C)C(=O)N[C@@H](CCSC)C(=O)N[C@@H](Cc1cnc[nH]1)C(=O)N[C@@H](CC(N)=O)C(=O)N[C@@H](CC(C)C)C(=O)NCC(=O)N[C@@H](CCCCN)C(=O)N[C@@H](Cc1cnc[nH]1)C(=O)N[C@@H](CC(C)C)C(=O)N[C@@H](CC(N)=O)C(=O)N[C@@H](CO)C(=O)N[C@@H](CCSC)C(=O)N[C@@H](CCC(=O)O)C(=O)N[C@@H](CCCN=C(N)N)C(=O)N[C@H](C(=O)N[C@@H](CCC(=O)O)C(=O)N[C@@H](Cc1c[nH]c2ccccc12)C(=O)N[C@@H](CC(C)C)C(=O)N[C@@H](CCCN=C(N)N)C(=O)N[C@@H](CCCCN)C(=O)N[C@@H](CCCCN)C(=O)N[C@@H](CC(C)C)C(=O)N[C@@H](CCC(N)=O)C(=O)N[C@@H](CC(=O)O)C(=O)N[C@H](C(=O)N[C@@H](Cc1cnc[nH]1)C(=O)N[C@@H](CC(N)=O)C(=O)N[C@@H](Cc1ccccc1)C(=O)O)C(C)C)C(C)C [hPTH (1-34), human Parathyroid hormone (1-34)]
